Test results taken from US20130136721A1, “Compositions and Methods of Generating a Differentiated Mesodermal Cell” (THE JOHNS HOPKINS UNIVERSITY, priority 2010, published 2013).
Entries after “also recorded” stand apart in the source; their conditions may differ.

Assays:
Assay type in all cases: cell-based, human
H9 hESC = assay: Beating hEB assay (contracting hEB after forced aggregation cardiac differentiation); conditions: for effect on cardiac differentiation, phase 2 medium: supplement in d0-d2 medium; for effect on cardiac differentiation, phase 2 medium / effect on cardiac differentiation, phase 3 medium: contracting hEB d9; for effect on cardiac differentiation, phase 3 medium: supplement in d2-d4 medium; for effect on cardiac differentiation, phase 4 medium: supplement in d4 onwards medium
Source text: The cardiac differentiation protocol was divided into four distinct phases for optimization (FIG. 3A): phase 1: uniform undifferentiated growth; phase 2: hEB formation/mesoderm induction; phase 3: hEB cardiac specification; phase 4: contracting cardiomyocyte development. […] After an initial round of optimizations had been completed, optimizations was repeated a second time to account for the new media formulations and then a third time to optimize the final media formulation. In some cases fourth and fifth repeats were performed to improve the statistical power of the results. For each variable tested, the bell-curve distribution of dose-response was determined. Results shown are averages of the 2nd-5th replicates (FIG. 2B).
For forced aggregation hEB differentiations, confluent hESC or hiPSC which had been grown on a commercially available extracellular matrix, Geltrex (Invitrogen) as monolayers for 3 to 13 passages were passaged with TrypLE Select and seeded at 2.5×10^6 per T25 flask. After 24 hours growth, cells were washed with PBS and treated with room temperature TrypLE Select for 1 minute at 37° C. Cells were seeded at 5000 cells per well in 96-well V-bottom uncoated plates (249952, NUNC) in 100 μL per well RPMI+PVA medium consisting of RPMI Media 1640 (with L-Glutamine), 4 mg mL-1 polyvinyl alcohol (P8136, Sigma, dissolved in RPMI at 4° C. for at least 72 hours, mixing by inversion every day), 1% chemically defined lipid concentrate, 10 μg mL-1 recombinant human insulin (Sigma), 400 μM 1-thioglycerol (Sigma), 25 ng mL-1 BMP4 and 5 ng mL-1 FGF2 (both from R&D systems), 1 μM Y-27632 (Calbiochem). This medium is not stable and was made fresh for each experiment. After 48 hours (on day 2) medium was aspirated with a Costar 8-channel aspirator (Corning) and replaced with RPMI+FBS medium consisting RPMI Media 1640, 20% characterized FBS (Hyclone), 400 μM 1-thioglycerol. On day 4 media was changed to RPMI+PVA without growth factors and hEB were transferred to 96-well U-bottom tissue culture treated plates (650180, Greiner Bio-One). Media was changed on d7 and every 3 days afterwards. hEB were visually assessed for contraction on d9 using a Nikon Eclipse Ti inverted tissue culture microscope with a TOKAI-HIT heated stage (Nikon). Images were captured using NIS-Elements (Nikon). […] For traditional cardiac differentiations using FBS, undirected differentiation was performed as previously described (Kehat et al. J Clin Invest 108, 407-414 (2001)): briefly, confluent H9 hESC grown as colonies on MEF were treated with collagenase IV for 5 minutes at 37° C. then washed from the plate using a 5 mL pipette. Cell clusters were then transferred to Petri dishes in 20% FBS medium for 7 days. hEB were then transferred to gelatin coated tissue culture plates. Media was changed every 3 days.
One single replicate consists of one 96-well plate. Repeat replicates were performed 1-4 months apart using a different vial of cells. Each experiment was repeated at least 3 times representing at least 288 hEB. Total number of hEB assessed in this work exceeds 80,000. Wells in which no hEB was detected due to pipeting error were excluded and accounted for approximately 1-5% of wells. P-values were established using unpaired two-tailed Student's t-test.

[1] = system: hESC-derived cardiomyocyte monolayer; assay: Voltage macromapping of cardiomyocyte monolayer (action potential duration); conditions: for effect on action potential: 20 μM isoproterenol or 100 μM pinacidil added to cardiomyocyte monolayers or hEB; for action potential duration: 0.67 Hz pacing, mean±s.d., 20 μM isoproterenol or 100 μM pinacidil, control 363±137 ms
Experimental: (§1) Cardiac markers and structural protein expression was assessed using immunofluorescence staining. […] To assess quality of hPSC-derived cardiomyocytes that were generated using this method and suitability for future applications such as cardiotoxicity testing, the electrophysiological properties were assessed via optical mapping. hEB were either mechanically dissected and plated onto fibronectin-coated glass coverslips for micromapping, or approximately 200 hEB were dissociated into single cells and plated in a 10 mm diameter area as a confluent monolayer for macromapping. hEB and monolayers were then stained with either voltage- or calcium-sensitive dye and optically mapped to visualize spontaneous activity and response to electrical field stimulation (FIG. 12A). […] To assess cardioactive drug responsiveness, 20 μM isoproterenol or 100 μM pinacidil was added to cardiomyocyte monolayers or hEB to test for beta-adrenergic stimulation response and the presence of functional KATP channels, respectively. […] Contracting hEB derived from the hiPSC line 6.2 were tested in the same manner and yielded similar results.
For optical micromapping (Weinberg et al., Methods Mol Biol 660, 215-237 (2010), contracting hEB were mechanically dissected, plated on fibronectin-coated glass coverslips and given at least 5 days to attach. hEB were then stained with either 10 μM Rhod-2-AM calcium dye for 20 minutes or 10 μM di-4-ANEPPS voltage dye for 5 minutes. After several rinses with Tyrode's solution (135 mM NaCl, 5.4 mM KCl, 1.8 mM CaCl2, 1 mM MgCl2, 0.33 mM NaH2PO4, 5 mM HEPES, and 5 mM glucose), hEB were incubated with 30 μM blebbistatin for 15 minutes to inhibit excitation-contraction coupling and subsequently prevent signal distortion due to motion artifact. The absence of hEB contraction was confirmed visually. hEB were then excited at 530 nm to visualize spontaneous activity and response to electrical field stimulation. Imaging of transmembrane potential (Vm) or intracellular calcium (Cai) was performed using an Andor iXon+860 electron multiplying charged coupled device (EMCCD) camera (128×128 pixels) at 490 Hz sampling rate. […] Macromapping of hESC-CM monolayers was performed using contact fluorescent imaging, in which maps of Vm were recorded by placing the monolayer directly on top of a bundle of 253 optical fibers 1 mm in diameter, arranged in a tightly packed, 17-mmdiameter hexagonal array. […] To analyze data, the individual recorded signals recorded were spatially filtered using a 5×5 box filter, temporally filtered using a 10 point median filter, baseline-corrected by subtraction of a fitted 3rd order polynomial, and range-normalized. […] Uniformity of APD was assessed by the coefficient of variation. […]

H9 hEB = assay: Voltage optical micromapping of contracting hEB (action potential duration); conditions: 20 μM isoproterenol, 4 hEB, mean±s.d., p≈0.01 paired t-test
Experimental: as §1, with “results. […]” for “results.”

| Compound | effect on cardiac differentiation, phase 2 medium (H9 hESC) | effect on cardiac differentiation, phase 3 medium (H9 hESC) | also measured |
| --- | --- | --- | --- |
| TGFB | none were found to have the same potency as BMP4 | – | – |
| CC(C)NCC(O)c1ccc(O)c(O)c1 (stereo not drawn) [isoproterenol] | – | – | effect on action potential [1]: shortening of the action potential; action potential duration [1]: 262 ± 107 ms; shortening of the mean APD (H9 hEB): 23 ± 8 ms |
| insulin: recombinant human insulin (Sigma) | – | completely abrogated cardiac specification; also recorded: completely ablated cardiac differentiation | effect on cardiac differentiation, phase 4 medium (H9 hESC): did not effect this d4+ phase; effect on cardiac differentiation, xeno- and serum-free d2-d4 medium (H9 hESC; supplement in serum-free d2-d4 medium): inhibited cardiac differentiation |
| OCC(O)CS (stereo not drawn) [1-thioglycerol] | resulted in high efficiency cardiac differentiation | most suitable antioxidant for this phase | effect on cardiac differentiation, phase 4 medium (H9 hESC): essential for this d4+ phase |
| WNT3A | none were found to have the same potency as BMP4 | – | – |
| IGF2: growth factor titrated between 1-100 ng mL-1 | none were found to have the same potency as BMP4 | – | – |
| IGF1: growth factor titrated between 1-100 ng mL-1 | none were found to have the same potency as BMP4 | – | – |
| NC(=O)CC[C@H](N)C(=O)O [L-glutamine] | either did not further enhance differentiation or had negative effects on differentiation | did not enhance cardiac differentiation | – |
| O=C1O[C@H]([C@@H](O)CO)C(O)=C1O [L-ascorbic acid] | either did not further enhance differentiation or had negative effects on differentiation | Neither transferrin, L-ascorbic acid, lipids or NEAA enhanced this phase of differentiation | – |
| FGF2: fibroblast growth factor 2 | – | did not further enhance this phase; also recorded: did not enhance cardiac differentiation | – |
| CC(N/C(=N\C#N)Nc1ccncc1)C(C)(C)C (stereo not drawn) [pinacidil] | – | – | effect on action potential [1]: shortening of the action potential; action potential duration [1]: 257 ± 56 ms |
| C[C@@H](N)[C@H]1CC[C@H](C(=O)Nc2ccncc2)CC1 [Y-27632, reference compound] | further improved reproducibility and cardiac differentiation | – | – |
